Test results: patent US7105521B2, “Eugenosedin-A based pharmacoligical agents” (Syn-Tech Chem & Pharm Co., Ltd., priority 2003, dated 2006)
“Also recorded” adds a separate entry of the source.

Columns and labels:
5-HT re-uptake sites = biological target: T1, 5-HT re-uptake sites (Rattus norvegicus, UniProt P31652); experiment: 5-HT re-uptake in cerebral cortex synaptosomes; assay type: biochemical, Wistar rats
T1 construct: the cerebral cortex or striatum was dissected and crude synaptosomes were prepared; from tissue; host or cells: crude synaptosomes of Wistar rat cerebral cortex
T1 sequence (P31652 whole entry): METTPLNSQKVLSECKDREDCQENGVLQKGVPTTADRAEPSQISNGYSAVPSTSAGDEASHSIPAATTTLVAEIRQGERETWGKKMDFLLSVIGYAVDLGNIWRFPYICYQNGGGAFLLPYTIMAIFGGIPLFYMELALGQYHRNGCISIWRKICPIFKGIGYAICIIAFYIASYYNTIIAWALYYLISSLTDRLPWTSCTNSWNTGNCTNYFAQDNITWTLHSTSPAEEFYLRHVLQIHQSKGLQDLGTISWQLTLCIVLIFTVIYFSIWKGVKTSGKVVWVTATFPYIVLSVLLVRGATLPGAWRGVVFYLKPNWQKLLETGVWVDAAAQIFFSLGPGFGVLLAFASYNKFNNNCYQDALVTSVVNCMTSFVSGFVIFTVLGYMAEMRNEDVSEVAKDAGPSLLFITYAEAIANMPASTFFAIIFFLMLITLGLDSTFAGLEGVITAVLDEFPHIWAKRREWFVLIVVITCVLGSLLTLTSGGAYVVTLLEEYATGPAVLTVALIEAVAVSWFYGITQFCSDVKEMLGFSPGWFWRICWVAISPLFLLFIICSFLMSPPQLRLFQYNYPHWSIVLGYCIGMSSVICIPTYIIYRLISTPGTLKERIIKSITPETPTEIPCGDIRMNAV
Method: Saline was added to the incubation mixture, which was then filtered through a Whatman GF/B glass filter under reduced pressure. To determine nonspecific uptake, incubation was performed at 0° C.

5-HT2A receptor = 5-HT2A receptor (Rattus norvegicus, UniProt P14842); experiment: Receptor binding, [3H]ketanserin, rat cortex; parameters: from tissue; host or cells: Wistar rat cortex membranes; species or system Wistar rat
Chain of 5-HT2A receptor (P14842 whole entry): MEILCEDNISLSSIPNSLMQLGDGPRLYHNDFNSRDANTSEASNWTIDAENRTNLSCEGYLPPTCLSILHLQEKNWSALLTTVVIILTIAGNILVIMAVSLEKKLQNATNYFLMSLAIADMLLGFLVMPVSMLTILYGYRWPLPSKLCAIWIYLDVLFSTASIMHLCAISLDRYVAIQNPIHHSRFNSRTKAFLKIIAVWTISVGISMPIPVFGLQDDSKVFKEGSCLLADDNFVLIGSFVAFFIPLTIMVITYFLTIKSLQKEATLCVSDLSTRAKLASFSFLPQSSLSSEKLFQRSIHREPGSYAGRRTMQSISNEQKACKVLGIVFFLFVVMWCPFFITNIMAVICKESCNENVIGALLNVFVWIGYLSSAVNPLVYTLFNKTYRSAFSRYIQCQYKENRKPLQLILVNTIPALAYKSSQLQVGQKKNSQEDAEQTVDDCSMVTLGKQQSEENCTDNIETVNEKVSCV
Method: Drugs and chemicals. […] Eugenosedin-A synthesized in this laboratory was solvated in 50% absolute alcohol, 10% propylene glycol and further diluted with distilled water. All of the [^3H] ligand was purchased from New England Nuclear Corp. (Boston, Mass., U.S.A.).
Receptor binding studies. […] The homogenate was pressure filtered through muslin. Filtrate was centrifuged at 1000 g for 10 min. Supernatant was centrifuged at 10,000 g for 12 min at 4° C. The second supernatant was centrifuged at 30,000 g for 15 min at 4° C. The final pellet was re-suspended in assay buffer (75 mM Tris HCl, 25 mM MgCl2, pH 7.4). Protein content was determined by Bradford's method. Radioligand agents and membranes (200–300 μg) were incubated for 60 min at 25° C. with or without the addition of nonspecific binding agents, in a 75 mM Tris HCl buffer with 25 mM MgCl2, to make a final volume of 500 μl. In competitive-binding experiments, the competing agent was added directly to the incubation mixture. Incubation was terminated by addition of 1 ml of ice-cold assay buffer followed by immediate filtration through Whatman GF/C glass fiber filters supported on a 12-port filter manifold (Millipore). The filters were immediately washed 3 times with 5 ml of ice-cold assay buffer and dried in an oven at 60° C. for 2 hours before adding 5 ml of Triton-toluene-based scintillation fluid. Membrane-bound radioligand trapped in the filters was counted in a Beckman LS6500 scintillation system (Fullerton, Calif., U.S.A) with an efficiency of 45%. In each experiment, nonspecifically bound radioligand agents were determined by incubating membrane protein. Specific binding for each sample was obtained by deducting this value from the total binding of radioligand agents.

TNF-α = experiment: Plasma cytokine immunoreactivity after LPS: TNF-α; assay type: in vivo, Wistar rats
Method: (§1) Plasma cytokine immunoreactivity and blood glucose. Blood was collected from venous cannula, injected into ice-cold heparinized Eppendorf tubes and centrifuged at 1500 rpm for 10 min at 4° C. Plasma supernatant was stored at −70° C. until analyzed. Solid phase enzyme immunoassay that specifically detects murine IL-1β, IL-6, IFN-γ and TNF-α was used with a detection limit of >10 pg/ml (Endogen, U.S.A). Pretreatment with eugenosedin-A and other agents was performed 15 minutes before intravenous injection of LPS. Blood was collected from venous cannula. Blood glucose was measured with a glucose test strip (Glucotide, Bayer, U.S.A) at 1, 3 and 5 hours.

β1-adrenoceptor = biological target: T2, β1-adrenoceptor (Rattus norvegicus, UniProt P18090); experiment: Isoprenaline-induced positive inotropic effect in electrically stimulated rat left atria; assay type: cell-based; conditions: 10^−8, 10^−7, 10^−6 M, isolated rat left atria
T2 construct: isoprenaline-induced concentration-response curves in isolated rat left atria; from tissue; host or cells: isolated rat left atria
T2 sequence (P18090 whole entry): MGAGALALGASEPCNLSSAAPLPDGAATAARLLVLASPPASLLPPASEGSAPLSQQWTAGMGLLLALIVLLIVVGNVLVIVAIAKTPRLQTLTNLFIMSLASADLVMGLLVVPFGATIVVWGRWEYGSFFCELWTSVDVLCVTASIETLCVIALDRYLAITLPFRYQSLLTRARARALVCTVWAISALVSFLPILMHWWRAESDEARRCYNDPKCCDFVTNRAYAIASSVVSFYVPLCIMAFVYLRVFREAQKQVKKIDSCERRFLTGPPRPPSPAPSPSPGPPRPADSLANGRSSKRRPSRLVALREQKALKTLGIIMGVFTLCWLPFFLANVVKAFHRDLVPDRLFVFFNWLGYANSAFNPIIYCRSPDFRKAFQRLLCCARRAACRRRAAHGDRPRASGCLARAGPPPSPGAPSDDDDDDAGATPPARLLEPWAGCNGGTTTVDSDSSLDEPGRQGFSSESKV
Method: Isolation of rat left atria. Rats of either sex weighing 350–500 g were sacrificed after mild anesthesia with ether, and their hearts were quickly excised. Left atria were dissected from the hearts and mounted in a 10 ml organ bath with one end fixed and the other end connected to a force displacement transducer (Grass, Model FT03). The experiments were carried out at 37° C. in a Krebs solution of the following composition (mM): NaCl 113, KCl 4.8, CaCl2 2.2, KH2PO4 1.2, MgCl2 1.2, NaHCO3 25, Dextrose 11.0; bubbled with a 95% O2+5% CO2 mixture. Atria were pre-stretched to a baseline tension of 0.5 g and equilibrated for 60 min in an aerated Krebs solution before starting experimental protocols. Atria were driven at 2-s intervals via two platinum electrodes on each side. An incubation time of 30 min was allowed for the test compound. Data were calculated as a percentage of the maximum contraction (Wu et al., 2001).

LPS-induced hypotension = assay type: in vivo, Wistar rats; conditions: LPS 10 mg kg^−1 i.v.
Method: (§2) Intravenous injection. The experiments were carried out as previously described (Wu B N. et al., Biochem. Pharmacol., 48:101–109, 1994). In brief, Wistar rats weighing 250–300 grams were anesthetized with pentobarbital sodium (50 mg kg^−1, i.p.). Following tracheal cannulation, systemic arterial BP and HR were recorded from the femoral artery by a pressure transducer (model P10EZ; Spectramed, Oxnard, Calif., U.S.A.) connected to a recorder (GOULD, Valley View, Ohio, Model P50). Body temperature was maintained at 37° C. by an electric heating pad. A femoral vein was cannulated for intravenous injection of drugs and LPS (10 mg kg^−1).

IFN-γ = experiment: Plasma cytokine immunoreactivity after LPS: IFN-γ; assay type: in vivo, Wistar rats; conditions: 3 hours after LPS 10 mg kg^−1 i.v.; pretreatment 1 mg kg^−1 i.v.
Method: as §1

IL-1β = experiment: Plasma cytokine immunoreactivity after LPS: IL-1β; assay type: in vivo, Wistar rats; conditions: 3 hours after LPS 10 mg kg^−1 i.v.; pretreatment (eugenosedin-A 1 mg kg^−1 i.v.)
Method: as §1

[1] = Intravenous injection: BP and HR in pentobarbital-anesthetized rats; assay type: in vivo, Wistar rats
Method: as §2

Blood glucose after LPS = assay type: in vivo, Wistar rats
Method: as §1

α1-adrenoceptors = experiment: Noradrenaline-induced contraction of isolated rat thoracic aorta; assay type: cell-based; conditions: 10^−8, 10^−7, 10^−6 M
Description: Isolation of rat thoracic aorta. Rat thoracic aorta was removed, cleaned of adhering fat and connective tissue and cut into 3–4 mm wide transverse rings.

[2] = i.v., pentobarbital-anesthetized rats

CC=Cc1ccc(OCC(O)CN2CCN(c3ccccc3Cl)CC2)c(OC)c1 (centres unmarked) [eugenosedin-A]
IC50 (5-HT re-uptake sites): 34.3 µM
binding affinity for 5-HT2A receptors (5-HT2A receptor): higher binding affinity than other β-adrenergic antagonists; also recorded: higher binding affinity than propranolol
order of potency on 5-HT2A receptors (5-HT2A receptor): ketanserin >methylsergide >eugenosedin-A >5-HT >propranolol >prazosin
Ki (5-HT2A receptor; [3H]ketanserin, rat cortex): 0.0333 µM
LPS-induced increase in TNF-α (TNF-α; 3 hours after LPS 10 mg kg^−1 i.v., pretreatment (eugenosedin-A 1 mg kg^−1 i.v.)): significantly inhibited
LPS-induced increase in TNF-α (TNF-α; 5 hours after LPS 10 mg kg^−1 i.v., pretreatment): significantly reduced
cumulative isoprenaline-induced positive inotropic effects (β1-adrenoceptor): concentration-dependently inhibited
development of hypotension after LPS injection and normalization of BP (LPS-induced hypotension; i.v. pretreatment): normalized BP within 5 hours
first immediate hypotensive phase after LPS (LPS-induced hypotension; pretreatment 0.5 mg kg^−1 i.v.): not affected
first immediate hypotensive phase after LPS (LPS-induced hypotension; pretreatment 1 mg kg^−1 i.v.): attenuated it
second prolonged hypotensive phase after LPS (LPS-induced hypotension; pretreatment 0.5 and 1 mg kg^−1 i.v.): significantly reduced
LPS-induced increase in IFN-γ (IFN-γ): significantly inhibited
LPS-induced increase in IL-1β (IL-1β): significantly inhibited
effect on arterial blood pressure after acute intravenous injection ([1]; 0.1, 0.5, 1.0 mg kg^−1 i.v., pentobarbital-anesthetized Wistar rats): mild arterial hypotension
depressor effect compared with trazodone and ketanserin ([1]; i.v., pentobarbital-anesthetized Wistar rats): less than that of trazodone and ketanserin
mean BP and HR after intravenous administration [1, 2]: dose-dependent decrease in mean BP and HR
phenylephrine- and isoprenaline-induced changes in BP and HR [1, 2]: inhibited phenylephrine- and isoprenaline-induced changes in BP and HR
initial hyperglycemic response to LPS (Blood glucose after LPS; blood glucose at 1 and 3 hours after LPS): inhibited the initial hyperglycemic response to LPS
hypoglycemic response to LPS (Blood glucose after LPS; blood glucose at 5 hours after LPS): did not reverse the hypoglycemic response
cumulative noradrenaline-induced contractile activities (α1-adrenoceptors): competitively inhibited
